# In patent US20060069132A1, “Azolecarboxamide herbicides” (priority 2004, published 2006):
# Like-named read-outs stand apart in the source and are kept apart here.
# Key:
# [1] = test system: Surinam grass; test: Test B pre-/postemergence herbicide test; format: in vivo, Urochloa decumbens
# Outline: (§1)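 Formulation: non-phytotoxic solvent mix with surfactant. Timing: preemergence on seed and postemergence on 2–18 cm plants, applied concurrently. Readout after 13–15 d greenhouse: visual 0–100 control rating against controls.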
# [2] = test system: cocklebur; test: Test B pre-/postemergence herbicide test; format: in vivo, Xanthium strumarium; settings: for pest or weed control at 500 g/ha / pest or weed control at 125 g/ha: Xanthium strumarium
# Outline: (§2)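 Flooded paddy rice and barnyardgrass were treated at the 2-leaf stage; upland plantings received compound either on sown seed or on 1- to 4-leaf seedlings. All were kept 13–15 days in a greenhouse and scored visually, 0–100, relative to untreated plants.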
# [3] = test system: corn; test: Test B pre-/postemergence herbicide test; format: in vivo, Zea mays
# Outline: as §1
# [4] = test system: giant foxtail; test: Test B pre-/postemergence herbicide test; format: in vivo, Setaria faberi; settings: for pest or weed control at 500 g/ha / pest or weed control at 125 g/ha: Setaria faberi, 336 h
# Outline: as §1
# [5] = test system: lambsquarters; test: Test B pre-/postemergence herbicide test; format: in vivo, Chenopodium album
# Outline: as §1
# [6] = test system: morningglory; test: Test B pre-/postemergence herbicide test; format: in vivo, Ipomoea coccinea
# Outline: as §2
# [7] = test system: pigweed; test: Test B pre-/postemergence herbicide test; format: in vivo, Amaranthus retroflexus
# Outline: as §1
# [8] = test system: velvetleaf; test: Test B pre-/postemergence herbicide test; format: in vivo, Abutilon theophrasti
# Outline: as §1
# [9] = test system: blackgrass; test: Test B postemergence herbicide test; format: in vivo, Alopecurus myosuroides
# Outline: (§3)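 After treating 2-leaf paddy plants or 2–18 cm postemergence plants (1 to 4 leaves) with formulated chemical, researchers kept them in a greenhouse for 13–15 days. Effects were judged visually versus controls: 0 indicates none, 100 total control.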
# [10] = test system: wheat; test: Test B postemergence herbicide test; format: in vivo, Triticum aestivum; design: key to Wheat plant response rating: 0 = no effect, 100 = complete control
# Outline: (§4)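 Plants grow to 1- to 4-leaf stage (2–18 cm) for postemergence spraying, or to 2-leaf stage for the paddy test. Formulated compound is applied. Greenhouse holding lasts 13–15 days. Response is scored visually relative to controls, 0 no effect to 100 complete control; a dash means no result.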
# [11] = test system: wild oat; test: Test B postemergence herbicide test; format: in vivo, Avena fatua
# Outline: as §4
# [12] = test system: rice; test: Test B flooded paddy test; format: in vivo, Oryza sativa; settings: 1000 g ai/ha, scale 0 to 100 (0 no effect, 100 complete control)
# Outline: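 Scale 0–100: zero equals no visible effect, 100 complete control, judged by eye relative to controls. Timing: 13 to 15 days in greenhouse post-treatment. Growth stage at spraying: two leaves (paddy) or one to four leaves, 2–18 cm (postemergence).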
# [13] = test system: small flower umbrella sedge; test: Test B flooded paddy test; format: in vivo, Cyperus difformis; settings: 1000 g ai/ha, scale 0 to 100 (0 no effect, 100 complete control)
# Outline: as §3
# [14] = test system: ducksalad; test: Test B flooded paddy test; format: in vivo, Heteranthera limosa; settings: 1000 g ai/ha, scale 0 to 100 (0 no effect, 100 complete control)
# Outline: as §3
# [15] = test system: barnyardgrass; test: Test B flooded paddy test; format: in vivo, Echinochloa crus-galli; settings: 1000 g ai/ha, scale 0 to 100 (0 no effect, 100 complete control)
# Outline: as §3
# [16] = Postemergence, 500 g ai/ha, visual rating after 13 to 15 days, scale 0 (no effect) to 100 (complete control)
# [17] = 125 g ai/ha, 0 is no effect, 100 is complete control, preemergence
# [18] = Postemergence, 500 g ai/ha, scale 0 (no effect) to 100 (complete control)
# [19] = postemergence, 125 g ai/ha, scale 0 to 100
compound,measurement,setting,value
"CCn1nc(C(C)(C)C)cc1C(=O)Nc1cccc(C(=O)OCCF)c1 [Compound 82, 2-fluoroethyl 3-[[[3-(1,1-dimethylethyl)-1-ethyl-1H-pyrazol-5-yl]-carbonyl]amino]benzoate]",pest or weed control at 500 g/ha,"[1]; Urochloa decumbens, post-emergence, Postemergence, 500 g ai/ha, visual rating after 13 to 15 days, scale 0 (no effect) to 100 (complete control), read-out: Plant response rating, Surinam Grass",60%
same,pest or weed control at 125 g/ha,"[1]; Urochloa decumbens, post-emergence, postemergence, 125 g ai/ha, visual rating, scale 0 (no effect) to 100 (complete control), read-out: Surinam Grass plant response rating",30%
same,pest or weed control at 125 g/ha,"[1]; Urochloa decumbens, pre-emergence, preemergence, 125 g ai/ha, 0 to 100 scale, 0 is no effect, 100 is complete control, read-out: Plant response rating, Surinam Grass",0%
same,pest or weed control at 500 g/ha,"[2]; post-emergence, Postemergence, 500 g ai/ha, visual rating after 13 to 15 days, scale 0 (no effect) to 100 (complete control), read-out: Plant response rating, Cocklebur",100%
same,pest or weed control at 125 g/ha,"[2]; post-emergence, postemergence, 125 g ai/ha, visual rating, scale 0 (no effect) to 100 (complete control), read-out: Cocklebur plant response rating",80%
same,pest or weed control at 500 g/ha,"[2]; pre-emergence, Preemergence, 500 g ai/ha, scale 0 to 100, read-out: Cocklebur plant response rating",0%
same,pest or weed control at 125 g/ha,"[2]; pre-emergence, preemergence, 125 g ai/ha, 0 to 100 scale, 0 is no effect, 100 is complete control, read-out: Plant response rating, Cocklebur",0%
same,"Corn plant response rating (crop injury, 0 = no effect, 100 = complete kill) at 500 g/ha","[3]; Zea mays, post-emergence, Postemergence, 500 g ai/ha, visual rating after 13 to 15 days, scale 0 (no effect) to 100 (complete control)",30%
same,plant injury at 125 g/ha,"[3]; Zea mays, post-emergence, postemergence, 125 g ai/ha, visual rating, scale 0 (no effect) to 100 (complete control), read-out: Corn plant response rating",20%
same,plant injury at 500 g/ha,"[3]; Zea mays, pre-emergence, Preemergence, 500 g ai/ha, scale 0 to 100, read-out: Corn plant response rating",0%
same,"Corn plant response rating (crop injury, 0 = no effect, 100 = complete kill) at 125 g/ha","[3]; Zea mays, pre-emergence, preemergence, 125 g ai/ha, 0 to 100 scale, 0 is no effect, 100 is complete control",0%
same,pest or weed control at 500 g/ha,"[4]; post-emergence, Postemergence, 500 g ai/ha, visual rating after 13 to 15 days, scale 0 (no effect) to 100 (complete control), read-out: Plant response rating, Foxtail, Giant",10%
same,pest or weed control at 125 g/ha,"[4]; post-emergence, postemergence, 125 g ai/ha, visual rating, scale 0 (no effect) to 100 (complete control), read-out: Foxtail, Giant plant response rating",10%
same,pest or weed control at 500 g/ha,"[4]; pre-emergence, Preemergence, 500 g ai/ha, scale 0 to 100, read-out: Foxtail, Giant plant response rating",0%
same,pest or weed control at 125 g/ha,"[4]; pre-emergence, preemergence, 125 g ai/ha, 0 to 100 scale, 0 is no effect, 100 is complete control, read-out: Plant response rating, Foxtail, Giant",0%
same,pest or weed control at 500 g/ha,"[5]; Chenopodium album, post-emergence, 336 h, Postemergence, 500 g ai/ha, visual rating after 13 to 15 days, scale 0 (no effect) to 100 (complete control), read-out: Plant response rating, Lambsquarters",50%
same,pest or weed control at 125 g/ha,"[5]; Chenopodium album, post-emergence, 336 h, postemergence, 125 g ai/ha, visual rating, scale 0 (no effect) to 100 (complete control), read-out: Lambsquarters plant response rating",20%
same,pest or weed control at 125 g/ha,"[5]; Chenopodium album, pre-emergence, 336 h, preemergence, 125 g ai/ha, 0 to 100 scale, 0 is no effect, 100 is complete control, read-out: Plant response rating, Lambsquarters",0%
same,pest or weed control at 500 g/ha,"[6]; Ipomoea, post-emergence, 336 h, Postemergence, 500 g ai/ha, visual rating after 13 to 15 days, scale 0 (no effect) to 100 (complete control), read-out: Plant response rating, Morningglory",70%
same,pest or weed control at 125 g/ha,"[6]; Ipomoea, post-emergence, 336 h, postemergence, 125 g ai/ha, visual rating, scale 0 (no effect) to 100 (complete control), read-out: Morningglory plant response rating",10%
same,pest or weed control at 125 g/ha,"[6]; Ipomoea, pre-emergence, 336 h, preemergence, 125 g ai/ha, 0 to 100 scale, 0 is no effect, 100 is complete control, read-out: Plant response rating, Morningglory",0%
same,pest or weed control at 500 g/ha,"[7]; Amaranthus retroflexus, post-emergence, 336 h, Postemergence, 500 g ai/ha, visual rating after 13 to 15 days, scale 0 (no effect) to 100 (complete control), read-out: Plant response rating, Pigweed",100%
same,pest or weed control at 125 g/ha,"[7]; Amaranthus retroflexus, post-emergence, 336 h, postemergence, 125 g ai/ha, visual rating, scale 0 (no effect) to 100 (complete control), read-out: Pigweed plant response rating",80%
same,pest or weed control at 125 g/ha,"[7]; Amaranthus retroflexus, pre-emergence, 336 h, preemergence, 125 g ai/ha, 0 to 100 scale, 0 is no effect, 100 is complete control, read-out: Plant response rating, Pigweed",0%
same,pest or weed control at 500 g/ha,"[8]; Abutilon theophrasti, post-emergence, 336 h, Postemergence, 500 g ai/ha, visual rating after 13 to 15 days, scale 0 (no effect) to 100 (complete control), read-out: Plant response rating, Velvetleaf",90%
same,pest or weed control at 125 g/ha,"[8]; Abutilon theophrasti, post-emergence, 336 h, postemergence, 125 g ai/ha, visual rating, scale 0 (no effect) to 100 (complete control), read-out: Velvetleaf plant response rating",80%
same,pest or weed control at 125 g/ha,"[8]; Abutilon theophrasti, pre-emergence, 336 h, preemergence, 125 g ai/ha, 0 to 100 scale, 0 is no effect, 100 is complete control, read-out: Plant response rating, Velvetleaf",0%
same,pest or weed control at 125 g/ha,"[9]; Alopecurus myosuroides, post-emergence, 336 h, postemergence, 125 g ai/ha, visual rating, scale 0 (no effect) to 100 (complete control), read-out: Blackgrass plant response rating",0%
same,"Plant response rating, Blackgrass",[9]; [16],10
same,"Plant response rating, Wheat",[10]; [16],20
same,plant injury at 125 g/ha,"[10]; Triticum aestivum, post-emergence, 336 h, postemergence, 125 g ai/ha, visual rating, scale 0 (no effect) to 100 (complete control), read-out: Wheat plant response rating",20%
same,pest or weed control at 125 g/ha,"[11]; Avena fatua, post-emergence, 336 h, postemergence, 125 g ai/ha, visual rating, scale 0 (no effect) to 100 (complete control), read-out: Oat, Wild plant response rating",10%
same,"Plant response rating, Oat, Wild",[11]; [16],30
same,plant injury at 1000 g/ha,"[12]; Oryza sativa, 336 h, visual rating, 13 to 15 days, read-out: Rice plant response rating",40%
same,pest or weed control at 1000 g/ha,"[13]; Cyperus difformis, 336 h, visual rating, 13 to 15 days, read-out: Sedge, Umbrella plant response rating",40%
same,pest or weed control at 1000 g/ha,"[14]; Heteranthera limosa, 336 h, visual rating, 13 to 15 days, read-out: Ducksalad plant response rating",20%
same,pest or weed control at 1000 g/ha,"[15]; Echinochloa crus-galli, 336 h, visual rating, 13 to 15 days, read-out: Barnyardgrass plant response rating",30%
CCn1nc(C(C)(C)C)cc1C(=O)Nc1cccc(OS(=O)(=O)CC)c1 [Compound 408],"Plant response rating (0 to 100 scale), Surinam Grass",[1]; [17],30
same,Surinam Grass plant response rating,[1]; [18],30
same,Surinam Grass plant response rating,[1]; [19],20
same,"Plant response rating (0 to 100 scale), Cocklebur",[2]; [17],0
same,Cocklebur plant response rating,[2]; [18],70
same,Cocklebur plant response rating,[2]; [19],60
same,"Plant response rating (0 to 100 scale), Corn",[3]; [17],10
same,Corn plant response rating,[3]; [18],10
same,Corn plant response rating,[3]; [19],10
same,"Plant response rating (0 to 100 scale), Foxtail, Giant",[4]; [17],40
same,"Foxtail, Giant plant response rating",[4]; [18],50
same,"Foxtail, Giant plant response rating",[4]; [19],30
same,"Plant response rating (0 to 100 scale), Lambsquarters",[5]; [17],100
same,Lambsquarters plant response rating,[5]; [18],100
same,Lambsquarters plant response rating,[5]; [19],90
same,"Plant response rating (0 to 100 scale), Morningglory",[6]; [17],20
same,Morningglory plant response rating,[6]; [18],30
same,Morningglory plant response rating,[6]; [19],10
same,"Plant response rating (0 to 100 scale), Pigweed",[7]; [17],100
same,Pigweed plant response rating,[7]; [18],100
same,Pigweed plant response rating,[7]; [19],90
same,"Plant response rating (0 to 100 scale), Velvetleaf",[8]; [17],50
same,Velvetleaf plant response rating,[8]; [18],70
same,Velvetleaf plant response rating,[8]; [19],30
same,Blackgrass plant response rating,[9]; [18],80
same,Blackgrass plant response rating,[9]; [19],40
same,Wheat plant response rating,"[10]; 500 g ai/ha, scale 0 to 100, 0 no effect, 100 complete control, preemergence",80
same,Wheat plant response rating,[10]; [18],30
same,Wheat plant response rating,[10]; [19],20
same,"Oat, Wild plant response rating",[11]; [18],50
same,"Oat, Wild plant response rating",[11]; [19],30
same,Rice plant response rating,[12],80
same,"Sedge, Umbrella plant response rating",[13],90
same,Ducksalad plant response rating,[14],90
same,Barnyardgrass plant response rating,[15],70
